Measurements published in patent publication US9243247B2, “Composition for promoting apoptosis or inhibiting cell growth, comprising epstein-barr virus microrna” (Catholic University Industry Academic Cooperation Foundation, priority 2011, dated 2016).
Entries after “also recorded” stand apart in the source; their conditions may differ.

What was measured:
Assay type in all cases: cell-based
3′UTR of BIRC6 = assay: Dual luciferase reporter assay (psiCHECK) in HEK293T, BIRC6 3'UTR; details: for renilla value: 48 hours
Source text: (§1) For an miRNA target test, to psiCHECK, which is a luciferase vector (FIG. 9) specially designed for an miRNA target test including a firefly gene and a renilla gene in the same vector, a 3′UTR of the five genes shown in Table 5, which might be targeted by miR-BART15-3p, was individually cloned to prepare a vector for a target test for each of the genes.
(§2) HEK293T was divided into a 96-well plate such that 5×10^3 cells were allocated to each well, and miR-BART15-3p and a vector for a target test were transfected by using lipofectamine2000. Forty eight hours after the transfection, a dual luciferase reporter assay (Virology. 412(2), 392-400 (2011)) was performed to normalize the results with reference to firefly luciferase and observe a variation of the renilla luciferase gene expression. […] The renilla value was not decreased by […] which was formed by mutating a seed part of miR-BART15-3p (FIG. 10).
BIRC6 3′UTR included two target sites which might be hybridized with miR-BART15-3p. To verify whether these two sites are directly targeted by miR-BART15-3p, a point mutation was performed at a psiC-BIRC6 site which was seed-matched with miR-BART15-3p to prepare psiC-BIRC6m1 and psiC-BIRC6m2. Both of the sites were mutated to prepare psiC-BIRC6m1m2 (FIG. 11A).
HEK293T was divided into a 96-well plate such that 5×10^3 cells were allocated to each well, and miR-BART15-3p and a vector for a target test were transfected by using lipofectamine-2000. Forty eight hours after the transfection, a dual luciferase reporter assay (Virology. 412(2), 392-400 (2011)) was performed to normalize the results with reference to firefly luciferase and observe a variation of the renilla luciferase gene expression. The renilla value was not decreased in psiC-BIRC6m1 and psiC-BIRC6m1m2 by, while the renilla value was decreased in psiC-BIRC6m2 as in the case of psiC-BIRC6.

3′UTR of TAX1BP1 = assay: Dual luciferase reporter assay (psiCHECK) in HEK293T, TAX1BP1 3'UTR; details: psiCHECK with TAX1BP1 3′UTR, 48 hours after transfection
Source text: as §1, §2

AGS cell strain [1] = assay: Effect on cell cycle (propidium iodide staining, FACS, sub G1); details: for Relative Sub G1: mimic 10 nM, 10 uM 5-FU 24 h after transfection, then 48 hours, relative to scrambled control (=1)
Outline: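 AGS gastric cells (EBV-negative), 2×10^5 per well, were transfected with synthetic miRNA (10 nM). DNA was stained with propidium iodide, and the cell-cycle-altered fraction was measured by FACS.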

AGS cell strain [2] = assay: Cell growth test (CCK-8 assay) after transfection of BART miRNA mimics; details: for Relative Cell Growth: relative to scrambled control (=1)
Outline: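 EBV-negative AGS gastric cells in RPMI1640 with 10% FBS, seeded 1×10^3 cells/well and transfected with synthetic mature BART miRNA mimics (10 nM; dose series 1, 3, 10, 30 nM) via G-fectin. Growth read by CCK-8 after 72 h (or over time), 2 h at 37 °C, absorbance measured.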

TAX1BP1 mRNA = TAX1BP1 mRNA level by QRT-PCR; details: AGS; after transfection; listed as miR-BART15-3p
Experimental: (§3) miR-BART15-3p was transfected to AGS by using lipofectamine-2000. Forty eight hours after the transfection, the cells were harvested and a QRT-PCR and a Western blotting were performed (FIGS. 12A and 12B). The BIRC6 mRNA level was not changed in the AGS to which miR-BART15-3p was transfected, while the protein level was decreased.
Different from BIRC6, the mRNA level of TAX1BP1 was decreased in the AGS to which miR-BART15-3p was transfected (FIG. 12E).

BIRC6 protein = BIRC6 protein level by Western blotting; details: AGS; 48 hours after transfection; listed as miR-BART15-3p
Experimental: as §3
An miR-BART15-3p inhibitor was transfected to AGS-EBV by using lipofectamine-2000. Forty eight hours after the transfection, the cells were harvested and a QRT-PCR and a Western blotting were performed (FIGS. 12C and 12D). The BIRC6 mRNA level was not changed in the AGS-EBV to which an miR-BART15-3p inhibitor was transfected, while the protein level was increased.

## BART15-3p: EBV BART miRNA mimic, double stranded RNA; sense SEQ NO: 15, antisense SEQ NO: 16 (sense GUCAGUGGUUUUGUUUCCUUGA; antisense UCAAGGAAACAAAACCACUGAC; chemistry not given here)
3′UTR of BIRC6; psiC-BIRC6m1 (point mutation of site 1)
  renilla value: not decreased
3′UTR of BIRC6; psiC-BIRC6m1m2 (both sites mutated)
  renilla value: not decreased
3′UTR of BIRC6; psiC-BIRC6m2 (point mutation of site 2)
  renilla value: decreased
3′UTR of BIRC6; psiCHECK with BIRC6 3′UTR (psiC-BIRC6), 48 hours after transfection, listed as miR-BART15-3p
  renilla value (renilla luciferase, normalized to firefly): decreased
3′UTR of TAX1BP1
  renilla value (renilla luciferase, normalized to firefly): decrease
AGS cell strain [1]; mimic 10 nM plus 10 uM 5-FU (Example 6)
  ratio of sub G1 after the 5-FU treatment: greatly increased
AGS cell strain [1]; mimic 10 nM transfected alone, versus scrambled control
  percentage of sub G1: significantly higher
AGS cell strain [1]
  Relative Sub G1: 2.508
AGS cell strain [1]; listed as 15-3p
  Relative Sub G1: increased
AGS cell strain [2]; 3 nM, 72 hours after transfection
  cell growth lower than that of a scrambled control: 50%
AGS cell strain [2]; 10 nM, 72 hours after transfection
  cell growth: almost no cell growth
AGS cell strain [2]; 30 nM, 72 hours after transfection
  cell growth: almost no cell growth
AGS cell strain [2]; mimic 10 nM, 72 hours after transfection, n=9
  Relative Cell Growth: 0.5676
AGS cell strain [2]; mimic 10 nM, 72 hours after transfection, n=9, listed as miR-BART15-3p
  Relative Cell Growth: inhibited cell growth
AGS cell strain [2]; mimic 10 nM, depending on treatment time, listed as miR-BART15-3p
  cell growth over time: greatly decreased cell growth; also recorded: inhibited cell growth almost entirely
TAX1BP1 mRNA
  mRNA level of TAX1BP1: decrease
BIRC6 protein
  BIRC6 protein level: decrease
